Experimental data published in patent publication US8263538B2, “Personal wash cleanser with mild surfactant systems comprising defined alkanoyl compounds and defined fatty acyl isethionate surfactant product” (priority 2010, dated 2012).

Tested on: intrascapular area of the back
Assay: 14-day cumulative irritation Patch Test (occlusive patch, cleansers diluted to 25% w/w)
Details: for Patch test Total irritation score: higher score = more irritating
Procedure: This was randomized, double-blind study. A sufficient number of subjects were recruited to ensure that 25 subjects completed the study. The 14-day cumulative irritation test was conducted as follows. Patching occurred for 14 consecutive days, except on Sundays. Patches applied on Saturday were left in place until Monday, when freshly prepared patches were applied. The designated patch test sites were approximately 2 cm×2 cm on the intrascapular area of the back. Approximately 0.2 mL of the test product was placed onto a Parke-Davis Readi-Bandage® occlusive patch that measured 2 cm×2 cm. Solutions were made by diluting the cleansers to 25% w/w in distilled water. The patch was then applied to the designated test site. The patches were secured with hypoallergenic tape (Scanpor {Allerderm} as needed). A 0.5% sodium dodecyl sulfate (SDS) solution was used as the control in the test.
Each day following application, the patches were removed, the sites evaluated and identical patches reapplied to the same test sites. All evaluations were made using the following 6-point scoring system: • 0=No evidence of any effect • +=Barely perceptible (minimal, faint, uniform or spotty erythema) numerically equivalent to 0.5 • 1=Mild (pink, uniform erythema covering most of the contact site) • 2=Moderate (pink-red, erythema uniform in the entire contact site) • 3=Marked (bright red erythema with/without petechiae or papules) • 4=Severe (deep red erythema with/without vesiculation or weeping)
If a dermal reaction of 3 or 4 occur with any of the test articles at any point during the study, further patch testing on that subject was terminated at the test site involved, and the attained score was assigned to that site for the subsequent scheduled test days.
Cumulative irritation scores, which were the sum of the numerical irritation grades assigned daily during the 14-day test period, were calculated at the end of the study to compare mildness of the test products. […] The data were statistically analyzed using Tukey-Kramer Comparison, and statistical significance was determined at the 95% confidence level.

[1] = first series of Table 1 (0.5% SDS control = 783)
[2] = second series of Table 1 (0.5% SDS control = 912)

## CCCCCCCCCCCCOS(=O)(=O)[O-].[Na+] [0.5% SDS Solution, sodium dodecyl sulfate]
[1]
  Total irritation score compared to 0.5% SDS solution: 100%
  Patch test Total irritation score: 783
[2]
  Total irritation score compared to 0.5% SDS solution: 100%
  Patch test Total irritation score: 912
